Data set [1] deals with T1, NACHT, LRR and PYD domains-containing protein 3 (Homo sapiens, UniProt Q96P20). The experiment in a line: Inhibition of NLRP3 in human whole blood assessed as inhibition of IL-1beta production pretreated with LPS for 3 hrs followed by incubation with compound for 0.5 hrs and later incubated with ATP for 1.5 hrs by AlphaLISA assay. The data set is classed as tissue-based.

A short description of data set [2]: Lipophilicity, logD of the compound. The class given is physicochemical. As to conditions: octanol/water.
For data set [3], the target named is T1, NACHT, LRR and PYD domains-containing protein 3. The experiment in a line: Inhibition of NLRP3 in LPS/nigericin-induced human THP-1 cells assessed as inhibition of IL-1beta production pretreated with LPS for 3 hrs followed by incubation with compound for 15 mins and later stimulated with nigericin for 90 mins by AlphaLISA assay. The class given is cell-based.

Data set [4] is described as follows: Plasma protein binding in human by equilibrium dialysis method. As to conditions: read-out: PPB (converted). The class given is ADME, cell-free. A general note: In equilibrium dialysis free small molecules cross a membrane that holds back macromolecules.
Data set [5] can be described thus: Solubility of the compound in FaSSIF at pH 6.5 incubated for 4 to 24 hrs by LC/MS analysis. The class given is physicochemical. As to conditions: time 4-24 hrs.
Data set [6] can be described thus: Apparent permeability of the compound in human Caco-2 cells at 25 umol/L incubated for 2 hrs by LC/MS/MS analysis. The data set is classed as ADME, cell-based. As to conditions: dose 25 µmol/L. (Passage across Caco-2 layers is used to estimate intestinal permeability.)
Data set [7] in a line: Volume of distribution at steady state in Sprague-Dawley rat at 0.3 mg/kg, iv measured for 25 hrs. The class given is ADME, organism-based. As to conditions: in vivo, read-out: Vdss.
The subject of a further data set is THP-1. The experiment in a line: cells. As to conditions: Homo sapiens.
In data set [8] the target is NLR family CARD domain-containing protein 4 (Homo sapiens, UniProt Q9NPP4). Briefly: Inhibition of NLRC4 (unknown origin) in PMA-differentiated human THP-1 cells assessed as inhibition of IL-1 beta production pretreated for 15 mins followed by flagellin stimulation and measured after 18 hrs by AlphaLISA assay. The class given is cell-based. (Bead proximity is the source of the signal in Alpha formats.)
Sequence of NLR family CARD domain-containing protein 4 (Q9NPP4 whole entry, the tested form may be a part): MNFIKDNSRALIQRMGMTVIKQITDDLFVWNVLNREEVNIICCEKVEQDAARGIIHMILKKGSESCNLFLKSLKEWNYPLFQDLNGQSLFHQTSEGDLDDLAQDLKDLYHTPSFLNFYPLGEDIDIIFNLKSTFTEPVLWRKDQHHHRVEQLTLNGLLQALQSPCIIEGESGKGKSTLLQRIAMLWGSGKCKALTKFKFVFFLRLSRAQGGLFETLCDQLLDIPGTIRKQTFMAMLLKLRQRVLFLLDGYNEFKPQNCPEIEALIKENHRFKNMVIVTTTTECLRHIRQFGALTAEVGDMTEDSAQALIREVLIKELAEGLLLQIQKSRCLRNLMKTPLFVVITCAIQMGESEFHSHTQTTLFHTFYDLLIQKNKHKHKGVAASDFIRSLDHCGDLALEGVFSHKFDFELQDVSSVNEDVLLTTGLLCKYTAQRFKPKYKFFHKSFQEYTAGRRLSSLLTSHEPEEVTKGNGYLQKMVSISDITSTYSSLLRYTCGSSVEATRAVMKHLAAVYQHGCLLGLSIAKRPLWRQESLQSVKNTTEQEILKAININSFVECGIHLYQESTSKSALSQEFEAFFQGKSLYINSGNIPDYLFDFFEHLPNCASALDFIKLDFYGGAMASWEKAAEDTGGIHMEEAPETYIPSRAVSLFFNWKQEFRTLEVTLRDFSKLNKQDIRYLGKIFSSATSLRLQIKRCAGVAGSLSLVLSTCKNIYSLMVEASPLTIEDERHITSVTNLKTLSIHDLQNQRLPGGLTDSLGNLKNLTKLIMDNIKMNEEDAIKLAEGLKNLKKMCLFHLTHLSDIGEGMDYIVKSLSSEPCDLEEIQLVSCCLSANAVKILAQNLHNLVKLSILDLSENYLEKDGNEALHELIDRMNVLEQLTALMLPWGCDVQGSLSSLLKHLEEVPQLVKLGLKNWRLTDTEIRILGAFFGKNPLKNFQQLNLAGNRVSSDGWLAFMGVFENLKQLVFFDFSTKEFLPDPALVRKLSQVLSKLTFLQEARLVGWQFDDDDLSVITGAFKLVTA

The nature of data set [9]: Mean residence time in Sprague-Dawley rat at 0.3 mg/kg, iv. The data set is classed as ADME, organism-based. As to conditions: in vivo.
Data set [10] can be described thus: Metabolic stability in dog liver microsomes assessed as compound remaining incubated for 60 mins. The data set is classed as ADME, Canis lupus familiaris, Microsome. As to conditions: read-out: Stability.
Data set [11] can be described thus: Plasma protein binding in mouse by equilibrium dialysis method. The data set is classed as ADME, cell-free. As to conditions: read-out: PPB (converted).
Data set [12] concerns Mus musculus. Briefly: Anti-inflammatory activity against LPS-stimulated C57BL/6J mouse assessed as reduction in IL-1beta level administered orally pretreated for 0.5 hrs before LPS challenge and measured after 4 hrs by ELISA. The data set is classed as functional, organism-based. As to conditions: dose 1-10 mg/kg, route po, time 4.5 hrs.
A short description of data set [13]: Metabolic stability in human liver microsomes assessed as compound remaining incubated for 60 mins. As to conditions: read-out: Stability. The data set is classed as ADME, Microsome.
Data set [14] in a line: Cmax in Sprague-Dawley rat at 1 mg/kg, po measured for 25 hrs. As to conditions: in vivo. Further details: dose 1 mg/kg, time 25 hrs, route po. The class given is ADME, organism-based.
Data set [15] can be described thus: Total body clearance in Sprague-Dawley rat at 0.3 mg/kg, iv measured for 25 hrs. As to conditions: in vivo. The data set is classed as ADME, organism-based.
The nature of data set [16]: Mean residence time in Sprague-Dawley rat at 1 mg/kg, po. The class given is ADME, organism-based. As to conditions: in vivo.
Data set [17] is described as follows: Plasma protein binding in rat by equilibrium dialysis method. As to conditions: read-out: PPB (converted). The data set is classed as ADME, cell-free.
The nature of data set [18]: Metabolic stability in mouse liver microsomes assessed as compound remaining incubated for 60 mins. The data set is classed as ADME, Microsome. As to conditions: read-out: Stability.
Data set [19] is described as follows: Oral bioavailability in Sprague-Dawley rat at 1 mg/kg measured for 25 hrs. The class given is ADME, organism-based. As to conditions: in vivo.
In data set [20] the test system is Mus musculus. Briefly: Anti-inflammatory activity against adriamycin-induced glomerulonephritis BALB/c mouse model assessed as decrease in urine albumin-to-creatinine ratio administered orally for 2 weeks and measured for 24 hrs. The data set is classed as functional, organism-based. As to conditions: dose 30-300 mg/kg, route po, time 15.0 day.
In the next data set the target is Cytochrome P450 3A4 (Homo sapiens, UniProt P08684). Briefly: Inhibition of CYP3A4 in human liver microsomes using testosterone and midazolam as substrates by LC-MS/MS analysis. The data set is classed as ADME, Microsome.
Sequence of Cytochrome P450 3A4 (P08684 whole entry): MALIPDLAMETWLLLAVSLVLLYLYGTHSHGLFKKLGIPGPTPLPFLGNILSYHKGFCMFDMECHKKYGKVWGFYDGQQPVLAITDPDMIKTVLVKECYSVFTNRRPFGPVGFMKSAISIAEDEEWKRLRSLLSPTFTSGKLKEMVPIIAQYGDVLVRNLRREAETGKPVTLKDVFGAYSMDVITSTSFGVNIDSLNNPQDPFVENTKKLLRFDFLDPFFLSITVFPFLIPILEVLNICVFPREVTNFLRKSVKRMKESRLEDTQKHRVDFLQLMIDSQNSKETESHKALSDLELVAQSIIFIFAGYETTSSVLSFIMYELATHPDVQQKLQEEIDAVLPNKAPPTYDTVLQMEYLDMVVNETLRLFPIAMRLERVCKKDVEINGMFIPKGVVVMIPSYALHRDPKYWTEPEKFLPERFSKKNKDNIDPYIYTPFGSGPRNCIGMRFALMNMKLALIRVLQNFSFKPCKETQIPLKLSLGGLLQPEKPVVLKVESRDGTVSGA
The nature of data set [21]: Metabolic stability in rat liver microsomes assessed as compound remaining incubated for 60 mins. The class given is ADME, Microsome. As to conditions: read-out: Stability.

In brackets after ≈: the same amount, converted by molar mass. A value given as a limit tells only on which side of the number the result lay.

T1 sequence (Q96P20 whole entry, the tested form may be a part): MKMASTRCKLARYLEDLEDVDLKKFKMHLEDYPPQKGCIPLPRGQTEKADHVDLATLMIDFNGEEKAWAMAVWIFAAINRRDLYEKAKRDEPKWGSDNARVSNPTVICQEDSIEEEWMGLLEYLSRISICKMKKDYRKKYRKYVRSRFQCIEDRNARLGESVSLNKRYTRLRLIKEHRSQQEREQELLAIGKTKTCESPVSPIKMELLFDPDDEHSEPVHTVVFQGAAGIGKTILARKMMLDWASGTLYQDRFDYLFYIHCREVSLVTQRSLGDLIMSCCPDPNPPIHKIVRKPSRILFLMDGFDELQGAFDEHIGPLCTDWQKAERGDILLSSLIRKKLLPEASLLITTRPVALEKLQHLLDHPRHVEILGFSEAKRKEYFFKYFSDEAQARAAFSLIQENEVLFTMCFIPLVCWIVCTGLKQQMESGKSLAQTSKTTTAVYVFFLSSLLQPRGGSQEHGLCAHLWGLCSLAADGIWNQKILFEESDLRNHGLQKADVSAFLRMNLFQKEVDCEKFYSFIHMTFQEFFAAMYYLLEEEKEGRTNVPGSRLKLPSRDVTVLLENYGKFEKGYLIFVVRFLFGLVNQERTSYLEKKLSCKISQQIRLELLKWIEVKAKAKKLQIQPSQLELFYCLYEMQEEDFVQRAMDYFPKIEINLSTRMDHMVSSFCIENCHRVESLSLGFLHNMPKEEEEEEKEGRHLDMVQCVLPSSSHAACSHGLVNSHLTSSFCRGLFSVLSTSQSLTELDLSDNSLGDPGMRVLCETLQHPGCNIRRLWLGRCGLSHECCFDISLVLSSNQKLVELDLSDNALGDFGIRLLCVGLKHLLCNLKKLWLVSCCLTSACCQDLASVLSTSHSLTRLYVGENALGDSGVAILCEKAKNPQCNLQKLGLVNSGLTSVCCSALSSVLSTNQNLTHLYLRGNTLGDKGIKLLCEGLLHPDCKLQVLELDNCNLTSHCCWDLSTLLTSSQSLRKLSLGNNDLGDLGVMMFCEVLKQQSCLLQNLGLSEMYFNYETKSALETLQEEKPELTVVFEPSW
Description for THP-1: Inhibition of pyroptosis in human THP-1 cells pretreated with LPS for 3 hrs followed by incubation with compound for 15 mins and later stimulated with nigericin for 90 mins by CytoTox-Glo assay

Turning to `Cc1ccc(C)c(Nc2nc(C(=O)NS(=O)(=O)N(C)C)co2)c1`, the figures for the IC50 in data set [1] and in data set [3] were 11 µM and 0.51 µM, respectively. Also, in [2], the logD – broadly, the decadic logarithm of the distribution of all forms, ionised or not, between an organic phase and buffer at a given pH – worked out at 2.

Regarding `COC(=O)c1ccnc(Nc2c3c(cc4c2CCC4)CCC3)n1`, the IC50 (as a rule, the concentration at which inhibition is half-maximal) in data set [3] was more than 30 µM.

`COC(=O)[C@@H]1CCCN1C(=O)Nc1c2c(cc3c1CCC3)CCC2`: the IC50 in [3] was more than 10 µM.

Consider `CCOC(=O)c1cnc(Nc2c3c(cc4c2CCC4)CCC3)[nH]1`, for which, in data set [3], the half-inhibitory concentration (IC50) is more than 30 µM.

In the case of `Cc1ccc(C(F)(F)F)cc1Nc1nc(C(=O)NS(=O)(=O)N(C)C(C)C)co1`, the fraction unbound in data set [4] was less than 0.001. This molecule also displayed a logD in data set [2] of 3.3.

For the molecule `CNC(=O)c1cnc(Nc2c3c(cc4c2CCC4)CCC3)o1`, the solubility (as a rule, the dissolved amount per volume that the medium holds) in data set [5] is 43.9 µM (≈ 13.1 µg/mL). In [3], the IC50 was more than 30 µM.

Regarding `Cc1ccc(C(F)(F)F)cc1Nc1nc(C(=O)NS(=O)(=O)N2CCCN(S(C)(=O)=O)CC2)co1`, the fraction unbound in data set [4] is 0.011. The logD in [2] came to 2.4.

Take `O=C(O)c1cnc(Nc2c3c(cc4c2CCC4)CCC3)o1`: in [6], the Papp (usually the rate of passage across a membrane or cell layer, normalised by area and donor concentration) at 2 h, 25 µM came to 4 ×10⁻⁶ cm/s. Besides, in [2], the logD is 1.8. The same molecule yielded a solubility in data set [5] of 442 µM (≈ 126 µg/mL). Moreover, the IC50 in [3] came out at 2.4 µM.

Turning to `CN1CCN(C(=O)c2cnc(Nc3c4c(cc5c3CCC5)CCC4)o2)S1(=O)=O`, the Papp at 2 h, 25 µM in data set [6] was 15.5 ×10⁻⁶ cm/s. This molecule also returned a logD in data set [2] of 3.8. Moreover, in [5], the concentration in solution (solubility) came to 18.1 µM (≈ 7.28 µg/mL).

For the molecule `COC(=O)[C@H]1CCCN1C(=O)Nc1c2c(cc3c1CCC3)CCC2`, the IC50 in [3] was more than 10 µM.

Consider `CCOC(=O)c1cnc(Nc2c3c(cc4c2CCC4)CCC3)o1`, for which, in data set [2], the logD worked out at 4.6. The molecule also came in with a solubility in data set [5] of 11.1 µM (≈ 3.47 µg/mL).

`CN(C)S(=O)(=O)NC(=O)c1coc(Nc2c3c(cc4c2CCC4)CCC3)n1`: the IC50 in [1] is 7.8 µM. In data set [6], the Papp at 2 h, 25 µM stood at 48.5 ×10⁻⁶ cm/s. In data set [2], the logD was determined as 2.8. The molecule also showed a solubility in data set [5] of 436 µM (≈ 170 µg/mL).

`Cc1ccc(C(F)(F)F)cc1Nc1nc(C(=O)NS(=O)(=O)N2CCCCC2)co1`: the fraction unbound in [4] is less than 0.001. In addition, the logD in [2] came to 3.1.

`COC(=O)CN1CC(=O)N(c2c3c(cc4c2CCC4)CCC3)C1=O`: in data set [3], the IC50 is more than 30 µM.

`Cc1ccc(C(F)(F)F)cc1Nc1nc(C(=O)NS(=O)(=O)N(C)C)co1`: the fraction unbound in data set [4] is 0.004. In data set [2], the pH-dependent lipophilicity (logD) was found to be 2.4.

For `Cc1ccc(C(F)(F)F)nc1Nc1nc(C(=O)NS(=O)(=O)N(C)C)co1`, the IC50 in [1] came to 4.7 µM. In [2], this molecule showed a logD of 2.1.

Consider `Cc1ccc(C(F)(F)F)cc1Nc1nc(C(=O)NS(=O)(=O)N2CCOCC2)co1`, for which the fraction unbound in [4] was less than 0.001. The IC50 is 8 µM in [1] and 0.038 µM in [3]. This molecule also returned a logD in [2] of 2.2.

Regarding `Cc1ccc(C(C)C)cc1Nc1nc(C(=O)NS(=O)(=O)N(C)C)co1`, the IC50 was determined as 6.8 µM in data set [1] and 0.14 µM in [3]. In data set [2], the logD came out at 2.7.

For the molecule `NC(=O)c1cnc(Nc2c3c(cc4c2CCC4)CCC3)o1`, the solubility in data set [5] was found to be 45.6 µM (≈ 12.9 µg/mL). Further, the 50% inhibitory concentration (IC50) in data set [3] is more than 30 µM.

Take `Cc1ccc2c(c1Nc1nc(C(=O)NS(=O)(=O)N(C)C)co1)CCC2`: in [1], the IC50 came to 18 µM. The same molecule gave a logD in data set [2] of 2.3.

For `Cc1ccc(C(C)(C)C)cc1Nc1nc(C(=O)NS(=O)(=O)N(C)C)co1`, in [1], the IC50 was 7.7 µM. Moreover, in [2], the logD turned out to be 3.

As to `Cc1ccc(C2CCC2)cc1Nc1nc(C(=O)NS(=O)(=O)N(C)C)co1`, in data set [2], the logD was 2.9.

With `CCOC(=O)c1nnc(Nc2c3c(cc4c2CCC4)CCC3)o1`, in [3], the half-inhibitory concentration (IC50) stood at 8.9 µM.

For `CC(=O)N1CCCN(S(=O)(=O)NC(=O)c2coc(Nc3cc(C(F)(F)F)ccc3C)n2)CC1`, in [4], the fraction unbound is 0.018. The molecule also yielded a logD in [2] of 2.2.

In the case of `Cc1ccc(C(F)(F)F)cc1Nc1nc(C(=O)NS(=O)(=O)N2CCCOCC2)co1`, in [7], the Vd was 0.28 L/kg. The IC50 was 0.028 µM in the data set with THP-1, more than 30 µM in [8] and more than 10 µM on Cytochrome P450 3A4. The fraction unbound in data set [4] was 0.009; in data set [11] it was 0.062; in data set [17], 0.034. The MRT (in general, the average time that molecules of a dose stay in the body) came to 4.7 h in [9] and 6.3 h in [16]. Further, the remaining at 1 h in data set [10] was determined as 90%; in data set [13] it was 71.2%; in data set [18] it was 45.5%; in data set [21] it was 90.3%. Also, the Activity entry in the data set with Mus musculus [12] and in the data set on Mus musculus [20] was “Dose-Dependent Effect” throughout. Besides, the highest level in data set [14] (Cmax) was 3.8 µM. Further, the Papp at 2 h, 25 µM in data set [6] was 27.8 ×10⁻⁶ cm/s. Moreover, in data set [2], the logD was 2.4. For the same molecule, the clearance (as a rule, a measure of how efficiently the substance is removed, as volume per time) in data set [15] was 1 mL/min/kg. Moreover, in data set [19], the bioavailability amounted to 121%. In data set [5], the concentration in solution (solubility) was 444 µM (≈ 199 µg/mL).

As for `CN(C)S(=O)(=O)NC(=O)c1cnc(Nc2c3c(cc4c2CCC4)CCC3)o1`, the Papp at 2 h, 25 µM in data set [6] came to 1.2 ×10⁻⁶ cm/s. The molecule further had a logD in [2] of 2.3. The molecule further yielded a solubility in [5] of more than 475 µM.

With `CC(C)c1ccc2c(c1Nc1nc(C(=O)NS(=O)(=O)N(C)C)co1)CCC2`, the IC50 in data set [1] was 5.8 µM. In addition, the logD in data set [2] stood at 2.9.

With `CS(=O)(=O)NC(=O)c1cnc(Nc2c3c(cc4c2CCC4)CCC3)o1`, in data set [6], the apparent permeability coefficient (Papp) at 2 h, 25 µM is 0.13 ×10⁻⁶ cm/s. Further, the pH-dependent lipophilicity (logD) in data set [2] was found to be 2.1. Also, the concentration in solution in data set [5] (solubility) was 475 µM (≈ 172 µg/mL). The IC50 in [3] worked out at 6.8 µM.

Turning to `CCOC(=O)c1cnc(Nc2c3c(cc4c2CCC4)CCC3)s1`, in data set [3], the IC50 was more than 30 µM.

The record behind these values is ChEMBL document CHEMBL5356996, “Discovery of Novel NLRP3 Inflammasome Inhibitors Composed of an Oxazole Scaffold Bearing an Acylsulfamide” (ACS Med Chem Lett, 2023).
